These results are taken from patent US6613322B2, “Method for treating a subject suffering from conditions associated with an extracellular zinc sphingomyelinase” (The Trustees of Columbia University in the City of New York, priority 1997, dated 2003).

This assay concerns L-SMase of HUVECs. Description: Cytokine regulation of L-SMase activity in HUVEC cell homogenates. The assay is classed as cell-based, human. As to conditions: cytokine-treated endothelial cells. The procedure:
FIGS. 23A-B. Cytokine regulation of S- and L-SMase of HUVECs. […] Conditioned media (FIG. 23A) and cell homogenates (FIG. 23B) from these cells were then assayed for SMase activity in the presence or absence of 0.1 mM ZnCl2, respectively.
Cells—Primary cultures of HUVEC were obtained from fresh umbilical cords and maintained in cell culture as previously described (31). Human coronary artery endothelial cells from a donor were purchased from Clonetics Corp. (San Diego, Calif.; cat. # CC-2585, Strain #3033). The cells were grown in endothelial basal media (EBM) (Clonetics) supplemented with 10% HI-FES; 10 μg endothelial cell growth supplement/ml (Sigma; cat. # E0760) and 50 μg gentamicin/ml. Primary cultures of bovine aortic endothelial, cells were established and subcultured as described previously (32). […]

As for IL-1β: human recombinant interleukin-1β, the “L-SMase (lysosomal SMase) activity” value is recorded as “decreased”.
